Data taken from patent publication US12391685B2, “Inhibitors of RNA-guided nuclease target binding and uses thereof” (THE BROAD INSTITUTE, INC., priority 2018, dated 2025).
In brackets after ≈: the same amount, converted by molar mass. Entries after “also recorded” stand apart in the source; their conditions may differ.

Tests used:
[1] = Plasma stability assay; type: in vitro ADME; settings: 5 μM, 50% human plasma in PBS, 5 h
Protocol: Plasma stability assay. Human plasma stability of the compounds was performed following a reported protocol (Di et al., 2005). BRD0539 (5 μM) was incubated with 50% human plasma (K2 EDTA, BioreclamationIVT) in PBS for 5 h in triplicate. Eucatropine (Aldrich) and verapamil (Acros) were included as the positive and negative control, respectively. The samples were analyzed by UPLC-MS (AB Sciex 4500 with Waters Acquity FTN) with compounds detected by […] mass spectrometer. All integration and analysis were performed using DiscoveryQuant software.

[2] = molecular target: FnCpf1 (Francisella tularensis subsp. novicida, UniProt A0Q7Q2); type: cell-based; settings: 6-20 μM, 30 h
[3] = molecular target: T1, SpCas9:DNA interactions (Streptococcus pyogenes serotype M1, UniProt Q99ZW2); test: Differential scanning fluorimetry, disruption of SpCas9-DNA interaction; type: binding, S. pyogenes; settings: SpCas9 1 μM, 8PAM DNA 2 μM, BRD0539 5-20 μM
T1 construct: made in house; host or cells: E. coli Rosetta (DE3)
Protocol: Disruption of SpCas9-DNA interaction by BRD0539. Protein melting experiments were performed in a 384-well format using a 6 μL reaction volume in a LightCycler 480 instrument. For DNA binding assay, 1 μM SpCas9 (1 μM) was incubated with indicated amount of 8PAM DNA (0.25, 0.5, 1, and 2 μM) for 15 min in a 20 mM Tris-HCl buffer (150 mM KCl, 5 mM MgCl2, 1 mM DTT, pH 7.5). For inhibition assay, SpCas9 (1 μM) or SpCas9:gRNA (1 μM) was incubated with indicated amount of either BRD0539 or equivalent amount of DMSO for 15 min in a 20 mM Tris-HCl buffer (150 mM KCl, 5 mM MgCl2, 1 mM DTT, pH 7.5). Next, a 8PAM DNA (2 μM) was added to each of the reaction and incubated for additional 15 min followed by addition of 1 μL of 100×SYPRO® Orange (Invitrogen) before running the melting cycle with a temperature gradient of 4.8° C./min. Experiments were performed in duplicate and data were processed using Roche LightCycler® 480 Protein Melting software.

[4] = molecular target: T2, SpCas9:gRNA interaction (Streptococcus pyogenes serotype M1, UniProt Q99ZW2); test: Fluorescence polarization assay for SpCas9-gRNA binding; design: species or system S. pyogenes; settings: 10-30 μM
T2 construct: made in house; host or cells: E. coli Rosetta (DE3)
Protocol: FIGS. 10A-10E—(FIG. 10A) Fluorescence polarization assay for detecting SpCas9-gRNA binding. A FITC-labeled crRNA:tracrRNA (25 nM) was titrated with an increasing amount of SpCas9 (7.5-250 nM). Error bars represent ±s.d. across technical replicates (n=3). […] An unlabeled crRNA:tracrRNA (25 nM) was pre-incubated with SpCas9 (25 nM) for 10 min before the addition of FITCcrRNA:tracrRNA (25 nM). Error bars represent ±s.d. across technical replicates (n=3). (FIG. 10C) Fluorescence polarization assay for determining the effect of BRD0539 in the SpCas9-FITCcrRNA:tracrRNA binding. SpCas9 (25 nM) was incubated with the indicated amount of BRD0539 (10-30 μM) for 15 min followed by the addition of FITC-crRNA:tracrRNA (25 nM), which was incubated for 30 min before measuring the FP signal. Error bars represent ±s.d. across technical replicates (n=3). (FIG. 10D) In vitro pulldown assay of SpCas9 by the BRD0539-biotin conjugate from WM793-SpCas9 cell lysate. Streptavidin magnetic beads pre-loaded with either BRD0539-biotin or biotin-azide were incubated with WM793-SpCas9 cell lysate for 12 h before processing the samples for western blotting. BRD0539 (20 μM) was used as a competitor. F and E represent the flow-through and eluent, respectively. […]

[5] = molecular target: SpCas9 (Streptococcus pyogenes serotype M1, UniProt Q99ZW2); test: Cellular thermal shift assay (CETSA) in WM793 melanoma cells; type: cell-based, S. pyogenes; settings: 15 μM, 24 h, WM793 cells stably expressing SpCas9
Protocol: Cellular Thermal Shift Assay (CETSA). Approximately 1× 10^6 cells pre-incubated with either DMSO or 15 μM BRD0539 for 24 h were resuspended in PBS and transferred to 200 μL PCR tubes. The suspended cells were heated to a different temperature for 3 min followed by lysis in 100 μL RIPA buffer containing protease inhibitors at 4° C. for 30 min. The clear cell lysate was collected by centrifuging the suspensions at 20,000×g for 20 min. The supernatant was transferred to a fresh tube and processed for Western blotting. Western blotting was performed using SDS-PAGE. In a typical experiment, 10 μg of proteins were electrophoresed on a 4-12% Bis-Tris gel and proteins were transferred to a PVDF membrane and probed with primary anti-SpCas9 antibody (abcam #ab191468). The membrane was imaged and bands were quantified using the LI-COR Odyssey imaging system. The CETSA curves were fitted with the equation, y=(U-L)/(1+e^(−(A/T−1)B))+L where, U and L are the upper and lower asymptotes, A is a half-way temperature, and B controls the slope of the sigmoid; temperature T is expressed in K. After the fitting, the data were re-normalized by dividing by U and the Tm was calculated using the formula Tm=AB/(B+log(1−2L/U)).

[6] = physchem; settings: PBS, aqueous buffer

T1 sequence (Q99ZW2 whole entry): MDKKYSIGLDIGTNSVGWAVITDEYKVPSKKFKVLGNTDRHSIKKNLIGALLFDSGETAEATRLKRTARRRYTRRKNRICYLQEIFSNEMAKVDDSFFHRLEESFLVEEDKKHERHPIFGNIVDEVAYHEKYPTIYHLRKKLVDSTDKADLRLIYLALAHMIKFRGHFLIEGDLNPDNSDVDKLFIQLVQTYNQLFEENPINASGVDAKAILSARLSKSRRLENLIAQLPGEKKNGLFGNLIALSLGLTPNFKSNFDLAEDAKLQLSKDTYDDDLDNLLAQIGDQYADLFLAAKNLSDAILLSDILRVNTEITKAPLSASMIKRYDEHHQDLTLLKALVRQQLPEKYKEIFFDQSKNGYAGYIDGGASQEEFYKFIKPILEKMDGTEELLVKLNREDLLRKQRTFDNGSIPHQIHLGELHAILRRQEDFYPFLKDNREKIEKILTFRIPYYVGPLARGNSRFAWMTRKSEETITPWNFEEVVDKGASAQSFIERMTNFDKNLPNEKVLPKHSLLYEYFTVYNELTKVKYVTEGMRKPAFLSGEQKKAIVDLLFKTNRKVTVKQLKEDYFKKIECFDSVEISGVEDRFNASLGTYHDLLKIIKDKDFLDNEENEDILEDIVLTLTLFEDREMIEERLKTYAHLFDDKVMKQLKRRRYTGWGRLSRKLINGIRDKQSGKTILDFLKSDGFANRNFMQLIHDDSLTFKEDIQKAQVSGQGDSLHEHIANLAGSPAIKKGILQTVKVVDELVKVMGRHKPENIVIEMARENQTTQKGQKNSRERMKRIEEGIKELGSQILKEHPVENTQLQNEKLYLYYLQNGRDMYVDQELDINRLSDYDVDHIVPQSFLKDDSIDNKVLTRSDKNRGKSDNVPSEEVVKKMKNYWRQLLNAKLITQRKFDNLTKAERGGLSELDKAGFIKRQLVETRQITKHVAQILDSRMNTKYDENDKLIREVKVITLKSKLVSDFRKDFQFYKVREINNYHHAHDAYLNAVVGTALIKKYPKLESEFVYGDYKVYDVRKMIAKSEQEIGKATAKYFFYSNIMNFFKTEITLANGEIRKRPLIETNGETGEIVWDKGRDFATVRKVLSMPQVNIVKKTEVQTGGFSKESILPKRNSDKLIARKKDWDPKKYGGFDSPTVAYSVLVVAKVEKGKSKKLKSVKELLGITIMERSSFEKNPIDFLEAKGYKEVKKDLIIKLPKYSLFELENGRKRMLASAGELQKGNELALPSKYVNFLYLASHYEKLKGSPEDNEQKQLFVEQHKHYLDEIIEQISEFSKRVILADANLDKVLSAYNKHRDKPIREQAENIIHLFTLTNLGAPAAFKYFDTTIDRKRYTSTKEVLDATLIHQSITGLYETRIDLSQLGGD
T2 sequence (Q99ZW2 whole entry): as above
Sequence of SpCas9 (Q99ZW2 whole entry): as above

Cc1ccc(S(=O)(=O)N2CC[C@@H]3[C@H](CO)Nc4ccc(-c5ccccc5F)cc4[C@@H]32)cc1 [BRD0539, ((3aR,4R,9bR)-8-(2-fluorophenyl)-1-tosyl-2,3,3a,4,5,9b-hexahydro-1H-pyrrolo[3,2-c]quinolin-4-yl) methanol]
human plasma stability (in words) [1]: stable in human plasma | inhibition of FnCpf1 (in words) [2]: unable to inhibit | effect on formation of the DNA-bound state of SpCas9 (in words) [3]: dose-dependently blocked the formation of the DNA bound state; also recorded: dose-dependently blocked the formation of the DNA-bound state | effect on SpCas9-FITC-crRNA:tracrRNA polarization signal [4]: did not perturb the polarization signal | lowering in the melting temperature of SpCas9 [5]: ~2.5 °C

OC[C@H]1Nc2ccc(-c3cccc(F)c3)cc2[C@H]2[C@@H]1CCN2Cc1ccncc1 [BRD7087, ((3aR,4S,9bR)-8-(3-Fluorophenyl)-1-(pyridin-4-ylmethyl)-2,3,3a,4,5,9b-hexahydro-1H-pyrrolo[3,2-c]quinolin-4-yl) methanol]
solubility at 24 h [6]: 75 µM (≈ 29.2 µg/mL)
